{"source": "paper PMC4893628", "about": "“Chalcone-based Selective Inhibitors of a C4 Plant Key Enzyme as Novel Potential Herbicides” (Scientific Reports, 2016)", "key": {"[1]": {"molecular_target": "T1, F. trinervia PEPC (Flaveria trinervia, UniProt P30694)", "T1 construct": "the full-length ppcA gene of PEPC from F. trinervia (EMBL-Bank X61304); made in house; host or cells: Escherichia coli BL21(DE3)", "T1 sequence (P30694 1-966)": "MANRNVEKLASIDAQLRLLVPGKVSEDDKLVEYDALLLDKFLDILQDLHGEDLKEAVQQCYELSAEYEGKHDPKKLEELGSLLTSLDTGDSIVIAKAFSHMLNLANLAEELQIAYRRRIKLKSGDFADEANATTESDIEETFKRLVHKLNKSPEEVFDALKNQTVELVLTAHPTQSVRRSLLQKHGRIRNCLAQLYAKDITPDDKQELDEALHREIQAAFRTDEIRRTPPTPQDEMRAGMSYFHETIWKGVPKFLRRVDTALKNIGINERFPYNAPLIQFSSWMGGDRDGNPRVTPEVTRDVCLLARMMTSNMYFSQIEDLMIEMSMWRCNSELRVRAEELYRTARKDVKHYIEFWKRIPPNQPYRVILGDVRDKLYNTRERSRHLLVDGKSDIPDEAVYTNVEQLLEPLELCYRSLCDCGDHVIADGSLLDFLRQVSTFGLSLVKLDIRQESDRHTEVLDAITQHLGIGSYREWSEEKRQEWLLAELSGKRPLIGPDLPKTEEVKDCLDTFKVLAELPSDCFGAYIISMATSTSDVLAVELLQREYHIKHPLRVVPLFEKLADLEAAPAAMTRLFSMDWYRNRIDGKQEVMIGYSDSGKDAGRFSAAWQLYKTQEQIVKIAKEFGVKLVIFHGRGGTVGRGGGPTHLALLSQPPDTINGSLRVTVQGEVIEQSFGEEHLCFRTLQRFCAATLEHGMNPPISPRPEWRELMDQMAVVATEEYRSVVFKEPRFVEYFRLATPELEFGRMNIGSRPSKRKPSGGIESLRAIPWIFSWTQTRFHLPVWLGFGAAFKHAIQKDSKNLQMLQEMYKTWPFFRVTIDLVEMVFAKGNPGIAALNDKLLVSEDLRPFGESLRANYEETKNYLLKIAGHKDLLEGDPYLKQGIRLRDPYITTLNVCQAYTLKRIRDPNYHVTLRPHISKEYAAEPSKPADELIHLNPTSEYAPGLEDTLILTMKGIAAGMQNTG", "assay": "biochemical", "assay_type": "biochemical", "settings": "for Selectivity C4/C3: C4 PEPC over C3 isoform", "procedure": "The IC50 values of small molecule compounds on F. pringlei and F. trinervia PEPCs were determined using PEPC coupled spectrophotometric assay. The amount of NADH oxidized by NADH-malate dehydrogenase was measured by the decrease in absorbance at 340 nm in a Beckman DU-800 spectrophotometer, thus the value is in proportion to the corresponding substrate conversion of the enzyme. […] The reactions were started by adding two folds of the Km value of PEP for each enzyme. The data were analyzed using GraFit (Erithacus Software, UK)."}, "[2]": {"system": "Amaranthus retroflexus", "assay": "In planta growth experiment, A. retroflexus", "assay_type": "in vivo", "settings": "for Influence on plants: shoots sprayed, 3 mM; for dry weight: six days after treatment, both experiments", "description": "Seeds of Amaranthus retroflexus L. (Herbiseed, Twyford, UK) and Brassica napus L. cv. Mozart (Norddeutsche Pflanzenzucht Hans-Georg Lembke KG, Holtsee, Germany) were sown in vermiculite for germination. When cotyledons were fully expanded, seedlings were transplanted into plastic pots with a volume of 0.230 L filled with a substrate containing 50% bottom ash (0–4 mm), 30% peat and 20% pumice gravel (0–4 mm). Plants were watered every other day with 0.03% Hakaphos® Grün solution (Compo Expert GmbH, Münster, Germany) by sub-irrigation. Plants were grown in a climate chamber at 22 °C/20 °C day/night temperature and a day/night length of 16 h/8 h. Relative humidity was adjusted to 70% and light intensity was 320 μmol m^−2 s^−1 PAR (Photosynthetically Active Radiation) at plant level.\nWhen seedlings reached the two-leaf growth stage, plant shoots were sprayed from the top with treatment solutions using spray bottles with a spraying angle of 35° (10 ml, neoLab Migge Laborbedarf-Vertriebs GmbH, Heidelberg, Germany). Treatment solutions were applied from a height of 8.5 cm above the pots. Each pot was sprayed once with a solution volume of 0.135 ml. Treatment solutions contained 2.4% (v/v) DMSO (dimethylsulfoxide, Duchefa Biochemie, Haarlem, the Netherlands), 0.1% (v/v) Tween® and the respective compound at a concentration of 3 mM. The control treatment contained 2.4% (v/v) DMSO, and 0.1% (v/v) Tween20. Further details are given in the Supplementary Information. […]\nExperimental design and assessments of in planta experiments\nWe tested eleven compounds in a first experiment. In a follow-up experiment we tested selected […]\nchalcone. Each treatment was repeated 12 times, except for oilseed rape in the second experiment (n=10). Pots were arranged in the growth chamber according to a fully randomized design. Initial growth of the second leaf of A. retroflexus plants was monitored by aquiring images of each plant from above from day zero to day two after treatment. Images were taken […]\nfrom a fixed distance at 90° view angle using the camera Canon EOS 70D equipped with a Canon EF 14 mm/2.8 L II USM lens. Leaf area of single leaves was measured using the ImageJ software31, by drawing the leaf contours using a drawing tablet (Cintiq 22HD, Wacom Europe GmbH, Krefeld, Germany). Conversion of pixel to cm was achieved by using a target of known size inside the image. Six days after the treatment, half of the plants were harvested. Leaf area was assessed using a leaf area meter (LI3100C Area Meter, LI-Cor, Lincoln, Nebraska, USA) and samples were oven-dried at 65°C for seven days to obtain dry weight . Thirteen days after the treatment, this procedure was repeated with the second half of plants.\nChlorophyll fluorescence measurements […]\n6 mm leaf discs were cut out of the second leaf and immediately placed into 96-well-plates filled with 300 µL 0.125 % Hoagland’s solution with 1 mM MES-KOH (MES-monohydrate, Merck, Darmstadt, Germany) buffered to a pH of 6.5. The treatment solution contained 1.6 % (v/v) DMSO, 0.1 % (v/v) Tween® 20 and 2',3',4',3,4-Pentahydroxychalcone at a concentration of 2 mM. The control treatment contained 1.6 % (v/v) DMSO, 0.1 % (v/v) Tween® 20. Each leaf disc was treated with 1.5 µL solution placed on top of the leaf discs. Plates were sealed with Parafilm and placed into a climate cabinet with 12h/12h day/night-length and a temperature of 22°C at a light intensity of 130 µmol m-2 s-1. 96 hours after treatment, chlorophyll fluorescence measurements were performed on leaf discs using an Imaging PAM M-Series fluorescence camera (Heinz Walz GmbH, Effeltrich, Germany). Leaf discs were dark adapted for 30 minutes, minimum and maximum chlorophyll fluorescence were obtained and leaf discs were illuminated for 30 minutes"}, "[3]": {"settings": "IC50 F. trinervia PEPC, C4 PEPC"}, "[4]": {"settings": "C4 PEPC, read-out: IC50 F. trinervia PEPC"}}, "note": "“And” between values parts separate entries of the source, which are not always exact repeats. Equal entries are not always repeated. Where two headings read alike, the source gives them in different places."}
{"smiles": "O=C(/C=C/c1ccccc1)c1ccccc1", "note": "[Compound 1, trans-Chalcone]", "values": [{"measurement": "Selectivity C4/C3", "setting": "[1]", "result": 1.5, "unit": "fold"}, {"measurement": "IC50", "setting": "[1]; [3]", "result": "77.5 ± 2.7", "unit": "µM"}, {"measurement": "Influence on plants", "setting": "[2]", "result": "No"}]}
{"smiles": "O=C(/C=C/c1ccccc1)c1ccccc1O", "note": "[Compound 2, 2′-Hydroxychalcone]", "values": [{"measurement": "Selectivity C4/C3", "setting": "[1]", "result": 1.5, "unit": "fold"}, {"measurement": "IC50", "setting": "[1]; [3]", "result": "51.9 ± 15", "unit": "µM"}, {"measurement": "Influence on plants", "setting": "[2]", "result": "No"}]}
{"smiles": "O=C(/C=C/c1ccc(O)cc1)c1ccccc1O", "note": "[Compound 3, 2′,4-Dihydroxychalcone]", "values": [{"measurement": "Selectivity C4/C3", "setting": "[1]", "result": 1.6, "unit": "fold"}, {"measurement": "IC50", "setting": "[1]; [4]", "result": "39.8 ± 4.2", "unit": "µM"}, {"measurement": "Influence on plants", "setting": "[2]", "result": "No"}]}
{"smiles": "O=C(/C=C/c1ccccc1)c1ccc(O)cc1O", "note": "[Compound 4, 2′,4′-Dihydroxychalcone]", "values": [{"measurement": "Selectivity C4/C3", "setting": "[1]", "result": 2.1, "unit": "fold"}, {"measurement": "IC50", "setting": "[1]; [4]", "result": "25.2 ± 1.3", "unit": "µM"}, {"measurement": "Influence on plants", "setting": "[2]", "result": "No"}]}
{"smiles": "O=C(/C=C/c1ccccc1)c1cc(O)ccc1O", "note": "[Compound 5, 2′,5′-Dihydroxychalcone]", "values": [{"measurement": "IC50", "setting": "[1]; [4]", "result": "42.1 ± 11.3", "unit": "µM"}, {"measurement": "Influence on plants", "setting": "[2]", "result": "No"}]}
{"smiles": "O=C(/C=C/c1ccc(O)cc1)c1ccc(O)cc1O", "note": "[Compound 6, 2′,4′,4-Trihydroxychalcone]", "values": [{"measurement": "Selectivity C4/C3", "setting": "[1]", "result": 1.5, "unit": "fold"}, {"measurement": "IC50", "setting": "[1]; [3]", "result": "38.2 ± 10.9", "unit": "µM"}, {"measurement": "Influence on plants", "setting": "[2]", "result": "No"}]}
{"smiles": "O=C(/C=C/c1ccccc1O)c1ccc(O)cc1O", "note": "[Compound 7, 2′,4′,2-Trihydroxychalcone]", "values": [{"measurement": "Selectivity C4/C3", "setting": "[1]", "result": 2.3, "unit": "fold"}, {"measurement": "IC50", "setting": "[1]; [4]", "result": "28.2 ± 2.2", "unit": "µM"}, {"measurement": "Influence on plants", "setting": "[2]", "result": "No"}]}
{"smiles": "O=C(/C=C/c1ccc(O)c(O)c1)c1ccc(O)cc1O", "note": "[Compound 8, 2′,4′,3,4-Tetrahydroxy-chalcone]", "values": [{"measurement": "Selectivity C4/C3", "setting": "[1]", "result": 29, "unit": "fold"}, {"measurement": "IC50", "setting": "[1]; [4]", "result": "2.2 ± 0.2", "unit": "µM"}, {"measurement": "Influence on plants", "setting": "[2]", "result": "No"}]}
{"smiles": "O=C(/C=C/c1cc(O)c(O)c(O)c1)c1ccc(O)cc1O", "note": "[Compound 9, 2′,4′,3,4,5-Pentahydroxychalcone]", "values": [{"measurement": "Selectivity C4/C3", "setting": "[1]", "result": 8.1, "unit": "fold"}, {"measurement": "IC50", "setting": "[1]; [4]", "result": "4.2 ± 1.4", "unit": "µM"}, {"measurement": "Influence on plants", "setting": "[2]", "result": "No"}]}
{"smiles": "O=C(/C=C/c1ccccc1)c1ccc(O)c(O)c1O", "note": "[Compound 10, 2′,3′,4′-Trihydroxychalcone]", "values": [{"measurement": "Selectivity C4/C3", "setting": "[1]", "result": 15, "unit": "fold"}, {"measurement": "Selectivity C4/C3", "setting": "[1]; listed as 2′,3′,4′-Trihydroxychalcone", "result": "15–45 fold"}, {"measurement": "IC50", "setting": "[1]; [3]", "result": "4.2 ± 1.5", "unit": "µM"}, {"measurement": "Influence on plants", "setting": "[2]", "result": "Yes"}, {"measurement": "dry weight", "setting": "[2]", "result": "significantly reduced"}]}
{"smiles": "O=C(/C=C/c1ccc(O)c(O)c1)c1c(O)cc(O)cc1O", "note": "[Compound 11, 2′,4′,6′,3,4-Pentahydroxy-chalcone]", "values": [{"measurement": "lower inhibitory effect / weaker inhibitory potency compared to okanin (12)", "setting": "[1]; C4 PEPC", "result": "~ four"}, {"measurement": "Selectivity C4/C3", "setting": "[1]", "result": 3.3, "unit": "fold"}, {"measurement": "IC50", "setting": "[1]; [4]", "result": "2.5 ± 0.1", "unit": "µM"}, {"measurement": "decreased / lower selectivity compared to okanin (12)", "setting": "[1]; C4 vs. C3 PEPC", "result": "~ 14 fold and ~ 13 fold"}, {"measurement": "Influence on plants", "setting": "[2]", "result": "No"}]}
{"smiles": "O=C(/C=C/c1ccc(O)c(O)c1)c1ccc(O)c(O)c1O", "note": "[Compound 12, 2′,3′,4′,3,4-Pentahydroxy-chalcone]", "values": [{"measurement": "lower IC50 value in comparison to 8–11", "setting": "[1]; C4 PEPC", "result": "~ 5 fold"}, {"measurement": "IC50", "setting": "[1]; [3]", "result": "0.6 ± 0.1", "unit": "µM"}, {"measurement": "Influence on plants", "setting": "[2]", "result": "Yes"}, {"measurement": "dry weight", "setting": "[2]", "result": "significantly reduced"}]}
